The supplement of paper PMC10883282

How the values were obtained:
Experiment in all cases: relative viability vs DMSO control (72 h) (fraction); higher = more viable cells
G401 = test system: G401
Summary of the method: (§1)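 Densities for seeding sarcoma cell lines into 384-well plates were set to give 80–90% confluence. After 24 h, 2.5 µl of serially diluted compound from source plates of 10 mM to 0.0002 mM went in, and plates stayed 72 h at 37 °C in 5% CO2 with 0.1% DMSO vehicle and a 5 µM positive control. Percent growth from ATPLite readings, averaged over up to triplicate wells, served as relative viability, rescaled so 1 means full and 0 means none.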

HT1080 = test system: HT1080
Summary of the method: as §1

KHOS-NP = test system: KHOS-NP
Summary of the method: as §1

MES-SA = test system: MES-SA
Summary of the method: as §1

RD-ES = test system: RD-ES
Summary of the method: as §1

RD = test system: RD
Summary of the method: as §1

SK-ES-1 = test system: SK-ES-1
Summary of the method: as §1

SK-LMS-1 = test system: SK-LMS-1
Summary of the method: as §1

SW1353 = test system: SW1353
Summary of the method: as §1

SW684 = test system: SW684
Summary of the method: as §1

SW872 = test system: SW872
Summary of the method: as §1

VA-ES-BJ = test system: VA-ES-BJ
Summary of the method: as §1

C#Cc1cccc(Nc2ncnc3cc(OCCOC)c(OCCOC)cc23)c1 [Erlotinib]
Conditions	relative viability
G401, 0.00017 µM	1.04
G401, 0.00051 µM	1.05
G401, 0.00152 µM	1.02
G401, 0.00457 µM	1.04
G401, 0.01372 µM	1.01
G401, 0.04115 µM	1.03
G401, 0.1235 µM	1.018
G401, 0.3704 µM	1.05
G401, 1.111 µM	1.016
G401, 3.333 µM	0.9684
G401, 10 µM	0.787
HT1080, 0.00017 µM	1.09
HT1080, 0.00051 µM	1.1
HT1080, 0.00152 µM	1.09
HT1080, 0.00457 µM	1.08
HT1080, 0.01372 µM	1.09
HT1080, 0.04115 µM	1.12
HT1080, 0.1235 µM	1.11
HT1080, 0.3704 µM	1.097
HT1080, 1.111 µM	1.1
HT1080, 3.333 µM	1.16
HT1080, 10 µM	0.942
KHOS-NP, 0.00017 µM	1.11
KHOS-NP, 0.00051 µM	1.092
KHOS-NP, 0.00152 µM	1.11
KHOS-NP, 0.00457 µM	1.11
KHOS-NP, 0.01372 µM	1.11
KHOS-NP, 0.04115 µM	1.1
KHOS-NP, 0.1235 µM	1.095
KHOS-NP, 0.3704 µM	1.1
KHOS-NP, 1.111 µM	1.1
KHOS-NP, 3.333 µM	1.086
KHOS-NP, 10 µM	1.04
MES-SA, 0.00017 µM	0.95
MES-SA, 0.00051 µM	0.973
MES-SA, 0.00152 µM	0.979
MES-SA, 0.00457 µM	0.945
MES-SA, 0.01372 µM	0.96
MES-SA, 0.04115 µM	0.972
MES-SA, 0.1235 µM	0.959
MES-SA, 0.3704 µM	0.948
MES-SA, 1.111 µM	0.914
MES-SA, 3.333 µM	0.687
MES-SA, 10 µM	0.458
RD, 0.00017 µM	1.08
RD, 0.00051 µM	1.09
RD, 0.00152 µM	1.09
RD, 0.00457 µM	1.08
RD, 0.01372 µM	1.07
RD, 0.04115 µM	1.09
RD, 0.1235 µM	1.09
RD, 0.3704 µM	1.1
RD, 1.111 µM	1.12
RD, 3.333 µM	1.04
RD, 10 µM	0.786
RD-ES, 0.00017 µM	0.971
RD-ES, 0.00051 µM	0.974
RD-ES, 0.00152 µM	0.975
RD-ES, 0.00457 µM	0.992
RD-ES, 0.01372 µM	0.965
RD-ES, 0.04115 µM	0.967
RD-ES, 0.1235 µM	0.998
RD-ES, 0.3704 µM	0.994
RD-ES, 1.111 µM	0.987
RD-ES, 3.333 µM	0.936
RD-ES, 10 µM	0.691
SK-ES-1, 0.00017 µM	1.048
SK-ES-1, 0.00051 µM	1.04
SK-ES-1, 0.00152 µM	1.08
SK-ES-1, 0.00457 µM	1.07
SK-ES-1, 0.01372 µM	1.09
SK-ES-1, 0.04115 µM	1.07
SK-ES-1, 0.1235 µM	1.05
SK-ES-1, 0.3704 µM	1.03
SK-ES-1, 1.111 µM	0.85
SK-ES-1, 3.333 µM	0.567
SK-ES-1, 10 µM	0.324
SK-LMS-1, 0.00017 µM	1.06
SK-LMS-1, 0.00051 µM	1.06
SK-LMS-1, 0.00152 µM	1.09
SK-LMS-1, 0.00457 µM	1.07
SK-LMS-1, 0.01372 µM	1.09
SK-LMS-1, 0.04115 µM	1.12
SK-LMS-1, 0.1235 µM	1.07
SK-LMS-1, 0.3704 µM	1.11
SK-LMS-1, 1.111 µM	1.07
SK-LMS-1, 3.333 µM	0.941
SK-LMS-1, 10 µM	0.698
SW684, 0.00017 µM	1.16
SW684, 0.00051 µM	1.15
SW684, 0.00152 µM	1.14
SW684, 0.00457 µM	1.23
SW684, 0.01372 µM	1.23
SW684, 0.04115 µM	1.19
SW684, 0.1235 µM	1.17
SW684, 0.3704 µM	1.19
SW684, 1.111 µM	1.2
SW684, 3.333 µM	1.18
SW684, 10 µM	1.05
SW872, 0.00017 µM	1.11
SW872, 0.00051 µM	1.12
SW872, 0.00152 µM	1.14
SW872, 0.00457 µM	1.11
SW872, 0.01372 µM	1.07
SW872, 0.04115 µM	1.1
SW872, 0.1235 µM	1.11
SW872, 0.3704 µM	1.06
SW872, 1.111 µM	1.04
SW872, 3.333 µM	0.822
SW872, 10 µM	0.638
SW1353, 0.00017 µM	1.02
SW1353, 0.00051 µM	1.03
SW1353, 0.00152 µM	1.043
SW1353, 0.00457 µM	1.02
SW1353, 0.01372 µM	1.04
SW1353, 0.04115 µM	1.01
SW1353, 0.1235 µM	0.955
SW1353, 0.3704 µM	0.928
SW1353, 1.111 µM	0.889
SW1353, 3.333 µM	0.812
SW1353, 10 µM	0.695
VA-ES-BJ, 0.00017 µM	1.088
VA-ES-BJ, 0.00051 µM	1.08
VA-ES-BJ, 0.00152 µM	1.08
VA-ES-BJ, 0.00457 µM	1.08
VA-ES-BJ, 0.01372 µM	1.06
VA-ES-BJ, 0.04115 µM	1.08
VA-ES-BJ, 0.1235 µM	1.09
VA-ES-BJ, 0.3704 µM	1.03
VA-ES-BJ, 1.111 µM	1.01
VA-ES-BJ, 3.333 µM	0.888
VA-ES-BJ, 10 µM	0.642

Cc1ccc(NC(=O)c2ccc(CN3CCN(C)CC3)cc2)cc1Nc1nccc(-c2cccnc2)n1 [Imatinib]
Conditions	relative viability
G401, 0.00017 µM	0.963
G401, 0.00051 µM	0.988
G401, 0.00152 µM	0.958
G401, 0.00457 µM	0.938
G401, 0.01372 µM	0.956
G401, 0.04115 µM	0.945
G401, 0.1235 µM	0.951
G401, 0.3704 µM	0.946
G401, 1.111 µM	0.925
G401, 3.333 µM	0.823
G401, 10 µM	0.518
HT1080, 0.00017 µM	1.06
HT1080, 0.00051 µM	1
HT1080, 0.00152 µM	0.989
HT1080, 0.00457 µM	1.02
HT1080, 0.01372 µM	1.03
HT1080, 0.04115 µM	0.987
HT1080, 0.1235 µM	1.01
HT1080, 0.3704 µM	0.968
HT1080, 1.111 µM	0.973
HT1080, 3.333 µM	0.942
HT1080, 10 µM	0.643
KHOS-NP, 0.00017 µM	1.01
KHOS-NP, 0.00051 µM	1.001
KHOS-NP, 0.00152 µM	1.01
KHOS-NP, 0.00457 µM	1
KHOS-NP, 0.01372 µM	1.02
KHOS-NP, 0.04115 µM	0.997
KHOS-NP, 0.1235 µM	1.03
KHOS-NP, 0.3704 µM	1.01
KHOS-NP, 1.111 µM	1.01
KHOS-NP, 3.333 µM	0.8795
KHOS-NP, 10 µM	0.609
MES-SA, 0.00017 µM	0.966
MES-SA, 0.00051 µM	0.988
MES-SA, 0.00152 µM	0.992
MES-SA, 0.00457 µM	0.9838
MES-SA, 0.01372 µM	0.985
MES-SA, 0.04115 µM	0.9942
MES-SA, 0.1235 µM	0.997
MES-SA, 0.3704 µM	1.02
MES-SA, 1.111 µM	1.01
MES-SA, 3.333 µM	0.905
MES-SA, 10 µM	0.658
RD, 0.00017 µM	0.964
RD, 0.00051 µM	0.974
RD, 0.00152 µM	0.952
RD, 0.00457 µM	0.967
RD, 0.01372 µM	0.976
RD, 0.04115 µM	0.983
RD, 0.1235 µM	0.95
RD, 0.3704 µM	0.943
RD, 1.111 µM	1.01
RD, 3.333 µM	1
RD, 10 µM	0.596
RD-ES, 0.00017 µM	0.954
RD-ES, 0.00051 µM	0.957
RD-ES, 0.00152 µM	0.969
RD-ES, 0.00457 µM	0.952
RD-ES, 0.01372 µM	0.957
RD-ES, 0.04115 µM	0.961
RD-ES, 0.1235 µM	0.967
RD-ES, 0.3704 µM	0.962
RD-ES, 1.111 µM	0.951
RD-ES, 3.333 µM	0.923
RD-ES, 10 µM	0.61
SK-ES-1, 0.00017 µM	0.937
SK-ES-1, 0.00051 µM	0.98
SK-ES-1, 0.00152 µM	0.9529
SK-ES-1, 0.00457 µM	0.9471
SK-ES-1, 0.01372 µM	0.983
SK-ES-1, 0.04115 µM	0.9614
SK-ES-1, 0.1235 µM	0.977
SK-ES-1, 0.3704 µM	0.97
SK-ES-1, 1.111 µM	0.957
SK-ES-1, 3.333 µM	0.841
SK-ES-1, 10 µM	0.62
SK-LMS-1, 0.00017 µM	1.02
SK-LMS-1, 0.00051 µM	1.02
SK-LMS-1, 0.00152 µM	1.04
SK-LMS-1, 0.00457 µM	1.02
SK-LMS-1, 0.01372 µM	1.06
SK-LMS-1, 0.04115 µM	1.07
SK-LMS-1, 0.1235 µM	1.05
SK-LMS-1, 0.3704 µM	1.08
SK-LMS-1, 1.111 µM	1.08
SK-LMS-1, 3.333 µM	1.11
SK-LMS-1, 10 µM	0.635
SW684, 0.00017 µM	0.968
SW684, 0.00051 µM	0.9679
SW684, 0.00152 µM	0.985
SW684, 0.00457 µM	1.02
SW684, 0.01372 µM	0.948
SW684, 0.04115 µM	0.9868
SW684, 0.1235 µM	1.01
SW684, 0.3704 µM	1.02
SW684, 1.111 µM	1.03
SW684, 3.333 µM	0.973
SW684, 10 µM	0.59
SW872, 0.00017 µM	0.973
SW872, 0.00051 µM	0.963
SW872, 0.00152 µM	0.954
SW872, 0.00457 µM	0.971
SW872, 0.01372 µM	0.992
SW872, 0.04115 µM	0.968
SW872, 0.1235 µM	0.969
SW872, 0.3704 µM	0.976
SW872, 1.111 µM	0.982
SW872, 3.333 µM	0.916
SW872, 10 µM	0.627
SW1353, 0.00017 µM	1.01
SW1353, 0.00051 µM	0.988
SW1353, 0.00152 µM	0.986
SW1353, 0.00457 µM	1.04
SW1353, 0.01372 µM	1.01
SW1353, 0.04115 µM	1.02
SW1353, 0.1235 µM	0.991
SW1353, 0.3704 µM	1
SW1353, 1.111 µM	1.06
SW1353, 3.333 µM	1.1
SW1353, 10 µM	0.762
VA-ES-BJ, 0.00017 µM	1.02
VA-ES-BJ, 0.00051 µM	1.029
VA-ES-BJ, 0.00152 µM	1.04
VA-ES-BJ, 0.00457 µM	1.024
VA-ES-BJ, 0.01372 µM	1.01
VA-ES-BJ, 0.04115 µM	1.01
VA-ES-BJ, 0.1235 µM	1.01
VA-ES-BJ, 0.3704 µM	1.02
VA-ES-BJ, 1.111 µM	1.02
VA-ES-BJ, 3.333 µM	0.9831
VA-ES-BJ, 10 µM	0.807
